From ChEMBL document CHEMBL3885861, “Open TG-GATES”

Species on record: Rattus norvegicus
Assay: Open TG-GATES - Regimen: Daily Repeat
Assay type: toxicity, organism-based, Sprague-Dawley
Set-up: regimen Daily Repeat, gender Male, age 6 weeks
Conditions: in vivo, po, 0 mg/kg, route gavage, dose level Control; for APTT / Bas / Eos / Fbg / Hb / Ht / Lym / MCH / MCHC / MCV / Mono / Neu / PT / Plat / RBC / Ret / WBC: tissue Blood; for KIDNEY_L / KIDNEY_R / KIDNEY_TOTAL: tissue Kidney; for LIVER: tissue Liver; for A/G / ALP / ALT / AST / BUN / CRE / Ca / Cl / DBIL / GLC / IP / K / LDH / Na / PL / RALB / TBIL / TC / TG / TP / gamma-GTP: tissue Plasma

SMILES: CN/C(=N/CCSCc1nc[nH]c1C)NC#N [CIMETIDINE]
- TERMINAL_BW (72 h, time 3 day): 226.2 g
- APTT (72 h, time 3 day): 20.3 s
- Bas (72 h, time 3 day): 0.4%
- Eos (72 h, time 3 day): 0.6%
- Fbg (72 h, time 3 day): 220.2 mg/dL
- Hb (72 h, time 3 day): 13.5 g/dL
- Ht (72 h, time 3 day): 40.5%
- Lym (72 h, time 3 day): 84.6%
- MCH (72 h, time 3 day): 21 pg
- MCHC (72 h, time 3 day): 33.4%
- MCV (72 h, time 3 day): 63.1 fL
- Mono (72 h, time 3 day): 2.2%
- Neu (72 h, time 3 day): 11.2%
- PT (72 h, time 3 day): 12.7 s
- Plat (72 h, time 3 day): 132.2 x10_4/uL
- RBC (72 h, time 3 day): 642.2 x10_4/ul
- Ret (72 h, time 3 day): 6.3%
- WBC (72 h, time 3 day): 102.1 x10_2/uL
- KIDNEY_L (72 h, time 3 day): 1 g
- KIDNEY_R (72 h, time 3 day): 1 g
- KIDNEY_TOTAL (72 h, time 3 day): 2 g
- LIVER (72 h, time 3 day): 10.7 g
- A/G (72 h, time 3 day): 1.7
- ALP (72 h, time 3 day): 1069.6 IU/L
- ALT (72 h, time 3 day): 36.6 IU/L
- AST (72 h, time 3 day): 71 IU/L
- BUN (72 h, time 3 day): 14.4 mg/dL
- CRE (72 h, time 3 day): 0.4 mg/dL
- Ca (72 h, time 3 day): 10.7 mg/dL
- Cl (72 h, time 3 day): 102.8 meq/L
- DBIL (72 h, time 3 day): 0.1 mg/dL
- GLC (72 h, time 3 day): 198.2 mg/dL
- IP (72 h, time 3 day): 7.1 mg/dL
- K (72 h, time 3 day): 3.7 meq/L
- LDH (72 h, time 3 day): 150 IU/L
- Na (72 h, time 3 day): 141.2 meq/L
- PL (72 h, time 3 day): 158 mg/dL
- RALB (72 h, time 3 day): 3.5 g/dL
- TBIL (72 h, time 3 day): 0.2 mg/dL
- TC (72 h, time 3 day): 75.8 mg/dL
- TG (72 h, time 3 day): 103 mg/dL
- TP (72 h, time 3 day): 5.7 g/dL
- gamma-GTP (72 h, time 3 day): 1 IU/L
- TERMINAL_BW ([…], time 7 day): 261.3 g
- TERMINAL_BW ([…], time 14 day): 315.1 g
- TERMINAL_BW ([…], time 28 day): 384.7 g
- APTT ([…], time 7 day): 18.7 s
- Bas ([…], time 7 day): 0.2%
- Eos ([…], time 7 day): 0.6%
- Fbg ([…], time 7 day): 228 mg/dL
- Hb ([…], time 7 day): 14 g/dL
- Ht ([…], time 7 day): 41.6%
- Lym ([…], time 7 day): 80%
- MCH ([…], time 7 day): 21.5 pg
- MCHC ([…], time 7 day): 33.5%
- MCV ([…], time 7 day): 64.2 fL
- Mono ([…], time 7 day): 2.2%
- Neu ([…], time 7 day): 15%
- PT ([…], time 7 day): 12.1 s
- Plat ([…], time 7 day): 129.9 x10_4/uL
- RBC ([…], time 7 day): 649 x10_4/ul
- Ret ([…], time 7 day): 5.8%
- WBC ([…], time 7 day): 117.4 x10_2/uL
- APTT ([…], time 14 day): 18.6 s
- Bas ([…], time 14 day): 0%
- Eos ([…], time 14 day): 0.8%
- Fbg ([…], time 14 day): 218.6 mg/dL
- Hb ([…], time 14 day): 14.3 g/dL
- Ht ([…], time 14 day): 43.5%
- Lym ([…], time 14 day): 79.2%
- MCH ([…], time 14 day): 20 pg
- MCHC ([…], time 14 day): 33%
- MCV ([…], time 14 day): 60.7 fL
- Mono ([…], time 14 day): 2.8%
- Neu ([…], time 14 day): 16.8%
- PT ([…], time 14 day): 12.1 s
- Plat ([…], time 14 day): 129.1 x10_4/uL
- RBC ([…], time 14 day): 717.8 x10_4/ul
- Ret ([…], time 14 day): 4.6%
- WBC ([…], time 14 day): 120.6 x10_2/uL
- APTT ([…], time 28 day): 20.4 s
- Bas ([…], time 28 day): 0%
- Eos ([…], time 28 day): 1.2%
- Fbg ([…], time 28 day): 205.8 mg/dL
- Hb ([…], time 28 day): 15.1 g/dL
- Ht ([…], time 28 day): 44.2%
- Lym ([…], time 28 day): 79.2%
- MCH ([…], time 28 day): 19.2 pg
- MCHC ([…], time 28 day): 34.1%
- MCV ([…], time 28 day): 56.4 fL
- Mono ([…], time 28 day): 2.2%
- Neu ([…], time 28 day): 16.6%
- PT ([…], time 28 day): 12.9 s
- Plat ([…], time 28 day): 99.1 x10_4/uL
- RBC ([…], time 28 day): 784 x10_4/ul
- Ret ([…], time 28 day): 2.6%
- WBC ([…], time 28 day): 121.2 x10_2/uL
- KIDNEY_L ([…], time 7 day): 1.1 g
- KIDNEY_R ([…], time 7 day): 1.1 g
- KIDNEY_TOTAL ([…], time 7 day): 2.1 g
- KIDNEY_L ([…], time 14 day): 1.3 g
- KIDNEY_R ([…], time 14 day): 1.2 g
- KIDNEY_TOTAL ([…], time 14 day): 2.5 g
- KIDNEY_L ([…], time 28 day): 1.5 g
- KIDNEY_R ([…], time 28 day): 1.5 g
- KIDNEY_TOTAL ([…], time 28 day): 2.9 g
- LIVER ([…], time 7 day): 12.5 g
- LIVER ([…], time 14 day): 14.1 g
- LIVER ([…], time 28 day): 15.5 g
- A/G ([…], time 7 day): 1.5
- ALP ([…], time 7 day): 1067.6 IU/L
- ALT ([…], time 7 day): 33.2 IU/L
- AST ([…], time 7 day): 62.4 IU/L
- BUN ([…], time 7 day): 16.6 mg/dL
- CRE ([…], time 7 day): 0.4 mg/dL
- Ca ([…], time 7 day): 10.7 mg/dL
- Cl ([…], time 7 day): 103.2 meq/L
- DBIL ([…], time 7 day): 0.1 mg/dL
- GLC ([…], time 7 day): 236.6 mg/dL
- IP ([…], time 7 day): 8 mg/dL
- K ([…], time 7 day): 3.9 meq/L
- LDH ([…], time 7 day): 165.2 IU/L
- Na ([…], time 7 day): 141.2 meq/L
- PL ([…], time 7 day): 156.4 mg/dL
- RALB ([…], time 7 day): 3.4 g/dL
- TBIL ([…], time 7 day): 0.2 mg/dL
- TC ([…], time 7 day): 73.6 mg/dL
- TG ([…], time 7 day): 138.8 mg/dL
- TP ([…], time 7 day): 5.7 g/dL
- gamma-GTP ([…], time 7 day): 1 IU/L
- A/G ([…], time 14 day): 1.4
- ALP ([…], time 14 day): 861.4 IU/L
- ALT ([…], time 14 day): 41.4 IU/L
- AST ([…], time 14 day): 72.8 IU/L
- BUN ([…], time 14 day): 17 mg/dL
- CRE ([…], time 14 day): 0.4 mg/dL
- Ca ([…], time 14 day): 10.6 mg/dL
- Cl ([…], time 14 day): 102.6 meq/L
- DBIL ([…], time 14 day): 0.1 mg/dL
- GLC ([…], time 14 day): 215.2 mg/dL
- IP ([…], time 14 day): 7.4 mg/dL
- K ([…], time 14 day): 4.1 meq/L
- LDH ([…], time 14 day): 169.6 IU/L
- Na ([…], time 14 day): 141.4 meq/L
- PL ([…], time 14 day): 155.6 mg/dL
- RALB ([…], time 14 day): 3.4 g/dL
- TBIL ([…], time 14 day): 0.2 mg/dL
- TC ([…], time 14 day): 70.8 mg/dL
- TG ([…], time 14 day): 168.4 mg/dL
- TP ([…], time 14 day): 5.9 g/dL
- gamma-GTP ([…], time 14 day): 1 IU/L
- A/G ([…], time 28 day): 1.2
- ALP ([…], time 28 day): 772.6 IU/L
- ALT ([…], time 28 day): 31 IU/L
- AST ([…], time 28 day): 59.6 IU/L
- BUN ([…], time 28 day): 16.2 mg/dL
- CRE ([…], time 28 day): 0.5 mg/dL
- Ca ([…], time 28 day): 10.1 mg/dL
- Cl ([…], time 28 day): 102.4 meq/L
- DBIL ([…], time 28 day): 0.1 mg/dL
- GLC ([…], time 28 day): 235.6 mg/dL
- IP ([…], time 28 day): 6.6 mg/dL
- K ([…], time 28 day): 3.6 meq/L
- LDH ([…], time 28 day): 151.6 IU/L
- Na ([…], time 28 day): 140.6 meq/L
- PL ([…], time 28 day): 137.4 mg/dL
- RALB ([…], time 28 day): 3.3 g/dL
- TBIL ([…], time 28 day): 0.2 mg/dL
- TC ([…], time 28 day): 61.8 mg/dL
- TG ([…], time 28 day): 119.8 mg/dL
- TP ([…], time 28 day): 6 g/dL
- gamma-GTP ([…], time 28 day): 1 IU/L
